# Experimental data published in patent US20240425483A1, “INDOLINES AS PROTAC COMPOUNDS” (NeoPhore Limited, priority 2021, published 2024).
# Target: T1, PMS2 protein (Homo sapiens, UniProt P54278)
# T1 construct: host or cells: SW620 human colorectal carcinoma cells
# T1 sequence (P54278 1-862): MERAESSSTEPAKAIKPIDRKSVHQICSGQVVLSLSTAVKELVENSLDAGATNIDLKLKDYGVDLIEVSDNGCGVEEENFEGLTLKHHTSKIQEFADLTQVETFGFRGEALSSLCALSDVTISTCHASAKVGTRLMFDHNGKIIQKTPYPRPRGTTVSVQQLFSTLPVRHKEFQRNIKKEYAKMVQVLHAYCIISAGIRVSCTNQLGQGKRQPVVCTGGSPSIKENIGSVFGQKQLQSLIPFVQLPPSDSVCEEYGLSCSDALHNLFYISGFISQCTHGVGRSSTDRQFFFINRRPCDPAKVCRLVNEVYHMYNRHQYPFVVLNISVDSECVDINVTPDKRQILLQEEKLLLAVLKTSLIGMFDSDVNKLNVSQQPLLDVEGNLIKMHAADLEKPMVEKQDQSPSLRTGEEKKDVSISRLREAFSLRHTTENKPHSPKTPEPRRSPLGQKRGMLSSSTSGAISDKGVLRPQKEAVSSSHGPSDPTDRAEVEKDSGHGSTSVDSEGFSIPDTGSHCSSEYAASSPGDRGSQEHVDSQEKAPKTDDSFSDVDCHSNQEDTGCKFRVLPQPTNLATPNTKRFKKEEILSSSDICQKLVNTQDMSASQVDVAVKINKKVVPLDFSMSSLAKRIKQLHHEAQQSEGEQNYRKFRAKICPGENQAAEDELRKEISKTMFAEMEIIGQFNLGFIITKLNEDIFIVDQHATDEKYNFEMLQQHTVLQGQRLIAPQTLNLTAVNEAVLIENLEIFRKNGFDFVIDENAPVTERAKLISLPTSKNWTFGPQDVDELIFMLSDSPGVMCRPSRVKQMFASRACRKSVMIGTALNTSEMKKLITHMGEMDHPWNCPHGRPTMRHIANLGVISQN
# Assay: PROTAC screening in SW620 human colorectal carcinoma cells, PMS2 protein level by JESS Western blot
# Assay type: cell-based
# Settings: SW-620, 24 h, 1 uM compound, normalised to actin and DMSO control, Table A1
# Method: PROTAC Screening Protocol Using SW620 Human Colorectal Carcinoma Cells
# SVW620 cells (ATCC/[…]) were cultured in T75 Falcon flasks in culture media (F12/DMEM 1:1 media, 10% FCS, +L-G supplement). Cells were split twice a week, for a maximum of 6 weeks. Media was aspirated, and cells washed with 10 mL of sterile PBS. PBS was aspirated, and cells incubated with 1.5 mL TrypLE for up to 5 minutes at 37° C., 5% CO2. Once cells had detached, TrypLE was neutralised with 10 mL culture media and cells mixed 1:1 with Trypan blue and quantified using a Luna cell counter. Cells were then seeded into fresh T75 flasks with 1×10^6 cells and 10 mL culture media.
# SW620 cells, cultured and counted as above, were used to seed 12 well plates at a density of 1.5×10^5 cells/well and incubated overnight at 37° C., 5% CO2. Test compounds were solubilized in DMSO to a stock concentration of 10 mM and serially diluted in DMSO and media to their test concentration; the final concentration of DMSO was 0.1% (v/v). Each concentration was tested in triplicate. SW620 cells were incubated with test compound for 24 hours at 37° C., 5% CO2. Media was aspirated from each well, and each well washed with 1 mL ice cold PBS. PBS was then aspirated, and 50 μL of cold lysis buffer (RIPA buffer supplemented with 1× protease inhibitors, Benzonase, MgCl) was added to each well; plates were then incubated on ice for 5 minutes. Cells were scraped using a pipette tip before being transferred to a fresh Eppendorf. Samples were spun at maximum speed in a benchtop centrifuge for 5 minutes at 4° C. and supernatant was then transferred to fresh tubes. Samples were stored at −80° C. until analysis.
# Bicinchonininic acid (BCA) protein assay standards (2-0.125 mg/mL BSA) were prepared in advance. 6 μL of each standard was pipetted in duplicate into rows A and B of a 384-well assay plate. Test samples were diluted in lysis buffer (1:3-1:10) in a 384-well plate in duplicate. BCA Reagents were combined 50:1, Part A:Part B and 50 μL added to each well. Plates were incubated for 30 min at 37° C. in a plate incubator and read using a BCA protein 384 protocol on an EnSpire plate reader. Protein concentrations were calculated from a standard curve.
# JESS Western Blot Protocol
# Protein lysates were prepared using Protein Simple EZ standard pack reagents: 40 μL distilled H2O was added to a DTT tube (clear) and treated with 20 μL 10× sample buffer and 20 μL DTT to 5×MM tube (pink). 20 μL dH2O was added to biotinylated ladder tube (green).
# Test samples were prepared by dilution to the required concentration (0.1 mg/mL) in 0.1× sample buffer. 1.25 μL 5× fluorescent master mix from the EZ standard pack was added to 5 μL sample for each lane to be loaded (e.g. 2.5 μL+10 μL if loading same sample into 2 wells). Samples were vortexed, briefly spun down and heated at 95° C. for 5 min in a PCR machine then vortexed again and briefly spun down before loading onto JESS cassettes (catalogue No: SM-W004) according to manufacturer's instructions (https://www.proteinsimple.com/technical_library.html?product=simplewestern&def_list=list). Protein expression was determined by the peak area of the target protein signal. Peak area of the target protein was normalised to peak area of the loading control (actin) and to DMSO control.
row,remaining activity at 1 µM [%],Compound
1,10 to 25,"Cc1c(O)cc(O)c(C(=O)N2Cc3ccc(CN4CCN(CCOCCOCCOCCOc5cccc6c5CN(C5CCC(=O)NC5=O)C6=O)CC4)cc3C2)c1OCc1ccccc1 (stereo not drawn) [Example 14, 3-(4-(2-(2-(2-(2-(4-((2-(2-(Benzyloxy)-4,6-dihydroxy-3-methylbenzoyl)isoindolin-5-yl)methyl)piperazin-1-yl)ethoxy)ethoxy)ethoxy)ethoxy)-1-oxoisoindolin-2-yl)piperidine-2,6-dione]"
2,10 to 25,"Cc1c(O)cc(O)c(C(=O)N2Cc3ccc(CN4CCN(CCOCCOCCOCCNc5cccc6c5CN(C5CCC(=O)NC5=O)C6=O)CC4)cc3C2)c1OCc1ccccc1 (stereo not drawn) [Example 15, 3-(4-((2-(2-(2-(2-(4-((2-(2-(Benzyloxy)-4,6-dihydroxy-3-methylbenzoyl)isoindolin-5-yl)methyl)piperazin-1-yl)ethoxy)ethoxy)ethoxy)ethyl)amino)-1-oxoisoindolin-2-yl)piperidine-2,6-dione]"
3,25 to 50,"Cc1c(O)cc(O)c(C(=O)N2Cc3ccc(CN4CCN(CCOCCOCCOCCNc5ccc6c(c5)CN(C5CCC(=O)NC5=O)C6=O)CC4)cc3C2)c1OCc1ccccc1 (stereo not drawn) [Example 16, 3-(5-((2-(2-(2-(2-(4-((2-(2-(Benzyloxy)-4,6-dihydroxy-3-methylbenzoyl)isoindolin-5-yl)methyl)piperazin-1-yl)ethoxy)ethoxy)ethoxy)ethyl)amino)-1-oxoisoindolin-2-yl)piperidine-2,6-dione]"
4,10 to 25,"Cc1c(O)cc(O)c(C(=O)N2Cc3ccc(CN4CCN(CCOCCOCCOCCNc5cccc6c5CN(C5CCC(=O)NC5=O)C6=O)CC4)cc3C2)c1OCC1CCCCC1 (stereo not drawn) [Example 17, 3-(4-((2-(2-(2-(2-(4-((2-(2-(Cyclohexylmethoxy)-4,6-dihydroxy-3-methylbenzoyl)isoindolin-5-yl)methyl)piperazin-1-yl)ethoxy)ethoxy)ethoxy)ethyl)amino)-1-oxoisoindolin-2-yl)piperidine-2,6-dione]"
5,25 to 50,"Cc1c(O)cc(O)c(C(=O)N2Cc3ccc(C(=O)N4CCC(OCCOCCOCCN5CCN(c6cc7c(cc6F)C(=O)N(C6CCC(=O)NC6=O)C7=O)CC5)CC4)cc3C2)c1OCc1ccccc1 (stereo not drawn) [Example 18, 5-(4-(2-(2-(2-((1-(2-(2-(Benzyloxy)-4,6-dihydroxy-3-methylbenzoyl)isoindoline-5-carbonyl)piperidin-4-yl)oxy)ethoxy)ethoxy)ethyl)piperazin-1-yl)-2-(2,6-dioxopiperidin-3-yl)-6-fluoroisoindoline-1,3-dione]"
6,< 10,"Cc1c(O)cc(O)c(C(=O)N2Cc3ccc(CN4CCN(CCOCCOCCOCCOCCNc5ccc6c(c5)C(=O)N(C5CCC(=O)NC5=O)C6=O)CC4)cc3C2)c1OCc1ccccc1 (stereo not drawn) [Example 19, 5-[2-[2-[2-[2-[2-[4-[[2-(2-Benzyloxy-4,6-dihydroxy-3-methyl-benzoyl)isoindolin-5-yl]methyl]piperazin-1-yl]ethoxy]ethoxy]ethoxy]ethoxy]ethylamino]-2-(2,6-dioxo-3-piperidyl)isoindoline-1,3-dione]"
7,10 to 25,"Cc1c(O)cc(O)c(C(=O)N2Cc3ccc(CN4CCC(CC(=O)N5CCN(c6ccc7c(c6)CN(C6CCC(=O)NC6=O)C7=O)CC5)CC4)cc3C2)c1OCC1CCCCC1 (stereo not drawn) [Example 20, 3-(5-(4-(2-(1-((2-(2-(Cyclohexylmethoxy)-4,6-dihydroxy-3-methylbenzoyl)isoindolin-5-yl)methyl)piperidin-4-yl)acetyl)piperazin-1-yl)-1-oxoisoindolin-2-yl)piperidine-2,6-dione]"
8,10 to 25,"Cc1c(O)cc(O)c(C(=O)N2Cc3ccc(CN4CCC(C(=O)N5CCN(c6ccc7c(c6)CN(C6CCC(=O)NC6=O)C7=O)CC5)CC4)cc3C2)c1OCC1CCCCC1 (stereo not drawn) [Example 21, 3-(5-(4-(1-((2-(2-(cyclohexylmethoxy)-4,6-dihydroxy-3-methylbenzoyl)isoindolin-5-yl)methyl)piperidine-4-carbonyl)piperazin-1-yl)-1-oxoisoindolin-2-yl)piperidine-2,6-dione]"
9,10 to 25,"Cc1c(O)cc(O)c(C(=O)N2Cc3ccc(C(=O)N4CCC(CN5CCN(c6ccc7c(c6)CN(C6CCC(=O)NC6=O)C7=O)CC5)CC4)cc3C2)c1OCc1ccccc1 (stereo not drawn) [Example 22, 3-(5-(4-((1-(2-(2-(Benzyloxy)-4,6-dihydroxy-3-methylbenzoyl)isoindoline-5-carbonyl)piperidin-4-yl)methyl)piperazin-1-yl)-1-oxoisoindolin-2-yl)piperidine-2,6-dione]"
10,10 to 25,"Cc1c(O)cc(O)c(C(=O)N2Cc3ccc(C(=O)N4CCC(CN5CCN(c6cc7c(cc6F)C(=O)N(C6CCC(=O)NC6=O)C7=O)CC5)CC4)cc3C2)c1OCc1ccccc1 (stereo not drawn) [Example 23, 5-(4-((1-(2-(2-(Benzyloxy)-4,6-dihydroxy-3-methylbenzoyl)isoindoline-5-carbonyl)piperidin-4-yl)methyl)piperazin-1-yl)-2-(2,6-dioxopiperidin-3-yl)-6-fluoroisoindoline-1,3-dione]"
11,< 10,"Cc1ncsc1-c1ccc(CNC(=O)[C@@H]2C[C@@H](O)CN2C(=O)[C@@H](NC(=O)CCCCCCCCCC(=O)N2CCN(Cc3ccc4c(c3)CN(C(=O)c3c(O)cc(O)c(C)c3OCc3ccccc3)C4)CC2)C(C)(C)C)cc1 [Example 24, (2S,4R)-1-((S)-2-(11-(4-((2-(2-(Benzyloxy)-4,6-dihydroxy-3-methylbenzoyl)isoindolin-5-yl)methyl)piperazin-1-yl)-11-oxoundecanamino)-3,3-dimethylbutanoyl)-4-hydroxy-N-(4-(4-methylthiazol-5-yl)benzyl) pyrrolidine-2-carboxamide]"
12,< 10,"Cc1ncsc1-c1ccc(CNC(=O)[C@@H]2C[C@@H](O)CN2C(=O)[C@@H](NC(=O)CCCCCCC(=O)N2CCN(Cc3ccc4c(c3)CN(C(=O)c3c(O)cc(O)c(C)c3OCc3ccccc3)C4)CC2)C(C)(C)C)cc1 [Example 25, (2S,4R)-1-[(2S)-2-[[8-[4-[[2-(2-Benzyloxy-4,6-dihydroxy-3-methyl-benzoyl)isoindolin-5-yl]methyl]piperazin-1-yl]-8-oxo-octanoyl]amino]-3,3-dimethyl-butanoyl]-4-hydroxy-N-[[4-(4-methylthiazol-5-yl)phenyl]methyl]pyrrolidine-2-carboxamide]"
